Measured values taken from ChEMBL document CHEMBL4325847, “Dihydropyrazothiazole derivatives as potential MMP-2/MMP-8 inhibitors for cancer therapy” (Bioorg Med Chem Lett, 2018).

Assays:
[1] = system: HeLa; assay: Antiproliferative activity against human HeLa cells after 48 hrs by MTT assay; type: functional, cell-based
[2] = target: Neutrophil collagenase (Homo sapiens, UniProt P22894); assay: Inhibition of recombinant human MMP-8 using Mca-PLGL-Dpa-AR-NH2 as substrate preincubated for 10 mins followed by substrate addition and measured for 5 mins by fluorescence assay
Neutrophil collagenase, sequence (P22894 whole entry): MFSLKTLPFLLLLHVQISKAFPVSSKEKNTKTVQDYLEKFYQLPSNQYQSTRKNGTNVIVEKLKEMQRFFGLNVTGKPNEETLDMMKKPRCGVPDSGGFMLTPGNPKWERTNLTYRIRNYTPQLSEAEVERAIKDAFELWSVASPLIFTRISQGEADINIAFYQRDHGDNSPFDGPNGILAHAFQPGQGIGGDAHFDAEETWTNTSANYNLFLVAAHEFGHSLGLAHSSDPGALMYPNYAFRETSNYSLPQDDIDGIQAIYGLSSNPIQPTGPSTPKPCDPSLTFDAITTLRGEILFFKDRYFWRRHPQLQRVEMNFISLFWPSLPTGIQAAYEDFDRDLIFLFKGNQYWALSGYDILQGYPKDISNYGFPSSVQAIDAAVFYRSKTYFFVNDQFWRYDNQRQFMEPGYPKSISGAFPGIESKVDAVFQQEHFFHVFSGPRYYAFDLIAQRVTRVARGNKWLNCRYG

[3] = target: 72 kDa type IV collagenase (Homo sapiens, UniProt P08253); assay: Inhibition of recombinant human MMP-2 preincubated for 10 mins followed by Mca-PLGL-Dpa-AR-NH2 substrate addition and measured for 5 mins by fluorescence assay
72 kDa type IV collagenase, sequence (P08253 whole entry): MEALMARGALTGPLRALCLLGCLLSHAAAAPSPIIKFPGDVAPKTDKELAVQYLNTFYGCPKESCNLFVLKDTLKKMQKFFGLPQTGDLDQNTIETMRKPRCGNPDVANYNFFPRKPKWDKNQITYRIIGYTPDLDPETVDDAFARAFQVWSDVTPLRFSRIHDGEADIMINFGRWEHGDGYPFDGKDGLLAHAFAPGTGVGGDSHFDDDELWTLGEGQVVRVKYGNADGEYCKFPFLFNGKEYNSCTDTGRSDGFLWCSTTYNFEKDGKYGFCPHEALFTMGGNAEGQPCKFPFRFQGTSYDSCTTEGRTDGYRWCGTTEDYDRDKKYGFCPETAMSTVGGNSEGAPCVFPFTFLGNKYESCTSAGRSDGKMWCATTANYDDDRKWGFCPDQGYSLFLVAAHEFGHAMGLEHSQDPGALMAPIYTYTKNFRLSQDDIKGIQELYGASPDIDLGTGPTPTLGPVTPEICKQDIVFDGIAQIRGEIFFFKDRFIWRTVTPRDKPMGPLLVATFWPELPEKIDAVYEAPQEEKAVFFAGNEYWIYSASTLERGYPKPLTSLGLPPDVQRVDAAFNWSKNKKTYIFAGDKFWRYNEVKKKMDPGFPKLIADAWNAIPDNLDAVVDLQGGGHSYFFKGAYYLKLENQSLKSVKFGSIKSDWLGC

[4] = system: HepG2; assay: Antiproliferative activity against human HepG2 cells after 48 hrs by MTT assay; type: functional, cell-based; details: HepG2, 48 h
[5] = system: L02; assay: Cytotoxicity against human LO2 cells by MTT assay; type: cell-based
[6] = system: MCF7; assay: Antiproliferative activity against human MCF7 cells after 48 hrs by MTT assay; type: functional, cell-based; details: MCF7, 48 h
[7] = system: HEK-293T; assay: Cytotoxicity against human 293T cells by MTT assay; type: cell-based
[8] = system: MCF7; assay: Induction of apoptosis in human MCF7 cells assessed as late apoptotic cells at 32 uM after 48 hrs by Annexin V-FITC/propidium iodide staining-based flow cytometric analysis (reference value: 5.33%); type: functional
[9] = system: MCF7; assay: Induction of apoptosis in human MCF7 cells assessed as early apoptotic cells at 32 uM after 48 hrs by Annexin V-FITC/propidium iodide staining-based flow cytometric analysis (reference value: 2.54%); type: functional
[10] = system: MCF7; assay: Induction of apoptosis in human MCF7 cells assessed as early apoptotic cells at 8 uM after 48 hrs by Annexin V-FITC/propidium iodide staining-based flow cytometric analysis (reference value: 2.54%); type: functional
[11] = system: MCF7; assay: Induction of apoptosis in human MCF7 cells assessed as late apoptotic cells at 2 uM after 48 hrs by Annexin V-FITC/propidium iodide staining-based flow cytometric analysis (reference value: 5.33%); type: functional
[12] = system: MCF7; assay: Induction of apoptosis in human MCF7 cells assessed as necrotic cells at 32 uM after 48 hrs by Annexin V-FITC/propidium iodide staining-based flow cytometric analysis (reference value: 0.343%); type: functional
[13] = system: MCF7; assay: Induction of apoptosis in human MCF7 cells assessed as necrotic cells at 8 uM after 48 hrs by Annexin V-FITC/propidium iodide staining-based flow cytometric analysis (reference value: 0.343%); type: functional
[14] = system: MCF7; assay: Induction of apoptosis in human MCF7 cells assessed as late apoptotic cells at 8 uM after 48 hrs by Annexin V-FITC/propidium iodide staining-based flow cytometric analysis (reference value: 5.33%); type: functional
[15] = system: MCF7; assay: Induction of apoptosis in human MCF7 cells assessed as early apoptotic cells at 2 uM after 48 hrs by Annexin V-FITC/propidium iodide staining-based flow cytometric analysis (reference value: 2.54%); type: functional
[16] = system: MCF7; assay: Induction of apoptosis in human MCF7 cells assessed as live cells at 2 uM after 48 hrs by Annexin V-FITC/propidium iodide staining-based flow cytometric analysis (reference value: 91.8%); type: functional
[17] = system: MCF7; assay: Induction of apoptosis in human MCF7 cells assessed as necrotic cells at 2 uM after 48 hrs by Annexin V-FITC/propidium iodide staining-based flow cytometric analysis (reference value: 0.343%); type: functional
[18] = system: MCF7; assay: Induction of apoptosis in human MCF7 cells assessed as live cells at 32 uM after 48 hrs by Annexin V-FITC/propidium iodide staining-based flow cytometric analysis (reference value: 91.8%); type: functional
[19] = system: MCF7; assay: Induction of apoptosis in human MCF7 cells after 48 hrs by Annexin V-FITC/propidium iodide staining-based flow cytometric analysis; type: functional, cell-based
[20] = system: MCF7; assay: Induction of apoptosis in human MCF7 cells assessed as live cells at 8 uM after 48 hrs by Annexin V-FITC/propidium iodide staining-based flow cytometric analysis (reference value: 91.8%); type: functional

Row | SMILES | IC50 [1] | IC50 [2] | IC50 ([3]; read-out: IC50) | IC50 [4] | CC50 [5] | IC50 [6] | CC50 [7] | further results
1 | COc1ccc(C2=NN(c3nc(-c4ccc(OC)cc4)cs3)C(c3ccccc3O)C2)cc1 (configuration not stated) | 16.3 µM | 65.2 µM | 11.7 µM | 15.3 µM | 49.7 µM | 3.17 µM | 63 µM | 
2 | COc1cccc(-c2csc(N3N=C(c4ccccc4)CC3c3ccccc3O)n2)c1 (configuration not stated) | 2.73 µM | 35.8 µM | 8.31 µM | 10.9 µM | 57.9 µM | 5.3 µM | 46.6 µM | 
3 | Oc1ccccc1C1CC(c2ccccc2)=NN1c1nc(-c2ccccc2)cs1 (configuration not stated) | 5.05 µM | 62.5 µM | 21.6 µM | 9.9 µM | 88.3 µM | 2.08 µM | 55.1 µM | IC50 ([3]; read-out: pIC50 (converted)): 21.4 µM
4 | COc1ccc(C2=NN(c3nc(-c4ccc(Br)cc4)cs3)C(c3ccccc3O)C2)cc1 (configuration not stated) | 28.1 µM | 36.8 µM | 16.9 µM | 9.52 µM | > 100 µM | 20.1 µM | 71.9 µM | 
5 | COc1ccc(C2=NN(c3nc(-c4ccc(C(F)(F)F)cc4)cs3)C(c3ccccc3O)C2)cc1 (configuration not stated) | 29.3 µM | > 100 µM | 58.8 µM | 12 µM | 45.6 µM | 11.1 µM | 45.4 µM | IC50 ([3]; read-out: pIC50 (converted)): 57.5 µM
6 | COc1ccc(C2=NN(c3nc(-c4cccc(Br)c4)cs3)C(c3ccccc3O)C2)cc1 (configuration not stated) | 13 µM | 48.1 µM | 14 µM | 7.55 µM | 68.7 µM | 4.42 µM | 24.5 µM | 
7 | COc1ccc(-c2csc(N3N=C(c4ccc(F)cc4)CC3c3ccccc3O)n2)cc1 (configuration not stated) | 17 µM | 28.2 µM | 10.8 µM | 18.2 µM | 85.6 µM | 4.56 µM | 59.4 µM | 
8 | COc1ccc(C2=NN(c3nc(-c4ccccc4)cs3)C(c3ccccc3O)C2)cc1 (configuration not stated) | 18.2 µM | 30.5 µM | 12.9 µM | 23.3 µM | 75.2 µM | 2.39 µM | 64.1 µM | 
9 | Oc1ccccc1C1CC(c2ccc(F)cc2)=NN1c1nc(-c2ccccc2)cs1 (configuration not stated) | 13.1 µM | 39.7 µM | 9.65 µM | 25 µM | 85.6 µM | 3.24 µM | 50.7 µM | 
10 | Oc1ccccc1C1CC(c2ccc(F)cc2)=NN1c1nc(-c2cccc(Br)c2)cs1 (configuration not stated) | 10.8 µM | 60.1 µM | 16.2 µM | 18.4 µM | 59.4 µM | 8.01 µM | 70.1 µM | 
11 | Oc1ccccc1C1CC(c2ccc(F)cc2)=NN1c1nc(-c2ccc(C(F)(F)F)cc2)cs1 (configuration not stated) | 11.7 µM | 100 µM | 58.4 µM | 10.5 µM | 66.1 µM | 2.89 µM | 34.8 µM | 
12 | COc1ccc(-c2csc(N3N=C(c4ccccc4)CC3c3ccccc3O)n2)cc1 (configuration not stated) | 8.64 µM | 48.9 µM | 11.2 µM | 11.9 µM | 72.4 µM | 1.03 µM | 57.1 µM | Activity [8]: 60.9%; Activity [9]: 2.29%; Activity [10]: 2.57%; Activity [11]: 22.4%; Activity [12]: 0.198%; Activity [13]: 0.207%; Activity [14]: 43.6%; Activity [15]: 4.44%; Activity [16]: 73%; Activity [17]: 0.216%; Activity [18]: 36.6%; Activity [19]: Dose-dependent effect; Activity [20]: 53.7%
13 | Oc1ccccc1C1CC(c2ccccc2)=NN1c1nc(-c2cccc(Br)c2)cs1 (configuration not stated) | 5.51 µM | 86.5 µM | 28.3 µM | 21.7 µM | 42.3 µM | 1.07 µM | 41.8 µM | 
14 | Oc1ccccc1C1CC(c2ccccc2)=NN1c1nc(-c2ccc(Br)cc2)cs1 (configuration not stated) | 4.88 µM | 75.6 µM | 34.8 µM | 17.6 µM | 65.2 µM | 2.14 µM | 52.8 µM | 
15 | Cc1ccc(-c2cc(C(F)(F)F)nn2-c2ccc(S(N)(=O)=O)cc2)cc1 [CELECOXIB] |  |  |  | 0.78 µM | 78.2 µM | 6.96 µM | 55.8 µM | 
16 | Oc1ccccc1C1CC(c2ccccc2)=NN1c1nc(-c2ccc(C(F)(F)F)cc2)cs1 (configuration not stated) | 2.25 µM | > 100 µM | 48.2 µM | 8.85 µM | 42.8 µM | 3.5 µM | 25.4 µM | 
17 | C[C@@]1(O)c2cccc(O)c2C(=O)C2=C(O)[C@]3(O)C(=O)C(C(N)=O)=C(O)C[C@@H]3C[C@@H]21 |  | 21.9 µM | 1.29 µM |  |  |  |  | 
18 | Oc1ccccc1C1CC(c2ccc(F)cc2)=NN1c1nc(-c2ccc(Br)cc2)cs1 (configuration not stated) | 2.7 µM | 48.8 µM | 12.3 µM | 15 µM | 48.2 µM | 1.47 µM | 52 µM | 
19 | COc1ccc(C2=NN(c3nc(-c4cccc(OC)c4)cs3)C(c3ccccc3O)C2)cc1 (configuration not stated) | 13.7 µM | 25.6 µM | 2.8 µM | 12.6 µM | 56.2 µM | 3.72 µM | 35.2 µM | 
20 | COc1cccc(-c2csc(N3N=C(c4ccc(F)cc4)CC3c3ccccc3O)n2)c1 (configuration not stated) | 9.73 µM | 36.4 µM | 6.7 µM | 17.8 µM | 43.8 µM | 4.01 µM | 39.1 µM | 
